We go through three compounds from patent US20210355107A1, “MULTI-SUBSTITUTED PYRIDONE DERIVATIVES AND MEDICAL USE THEREOF” (Beijing Yuezhikangtai Biomedicines Co., Ltd., priority 2018, published 2021).

The structures appear in SMILES notation.

One assay concerns the target T1, Ba/F3 Axl cells (Homo sapiens, UniProt P30530).
T1 sequence (P30530 1-894): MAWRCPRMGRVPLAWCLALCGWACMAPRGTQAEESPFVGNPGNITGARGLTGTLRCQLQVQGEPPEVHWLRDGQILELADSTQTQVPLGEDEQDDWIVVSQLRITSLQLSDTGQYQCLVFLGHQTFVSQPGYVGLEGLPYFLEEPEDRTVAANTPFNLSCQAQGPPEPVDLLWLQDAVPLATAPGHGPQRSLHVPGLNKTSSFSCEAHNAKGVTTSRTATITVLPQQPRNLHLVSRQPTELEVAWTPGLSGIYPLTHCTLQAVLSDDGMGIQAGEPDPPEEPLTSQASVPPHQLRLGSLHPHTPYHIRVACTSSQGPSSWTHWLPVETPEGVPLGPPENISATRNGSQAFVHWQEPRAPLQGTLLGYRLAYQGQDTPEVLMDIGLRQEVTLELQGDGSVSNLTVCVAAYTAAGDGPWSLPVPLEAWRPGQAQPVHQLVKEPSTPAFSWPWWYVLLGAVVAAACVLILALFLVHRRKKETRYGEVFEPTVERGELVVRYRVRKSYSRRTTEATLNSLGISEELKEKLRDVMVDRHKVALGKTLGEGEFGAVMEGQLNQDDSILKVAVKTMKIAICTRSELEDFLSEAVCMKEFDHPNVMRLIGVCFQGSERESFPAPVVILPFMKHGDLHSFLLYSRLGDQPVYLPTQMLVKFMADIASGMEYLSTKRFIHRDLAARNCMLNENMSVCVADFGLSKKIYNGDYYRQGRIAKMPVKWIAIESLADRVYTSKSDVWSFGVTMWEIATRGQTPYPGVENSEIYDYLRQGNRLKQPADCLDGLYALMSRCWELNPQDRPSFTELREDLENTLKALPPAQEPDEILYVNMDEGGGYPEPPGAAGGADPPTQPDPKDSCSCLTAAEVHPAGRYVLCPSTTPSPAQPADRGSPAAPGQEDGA
As to the kind of experiment: Ba/F3 Axl cell proliferation, CellTiter-Glo Luminescent Cell Viability Assay. It is filed as cell-based. Conditions: read-out: IC50 (nM) against Ba/F3 Axl cells, 100 ng/mL rhGas6, 72 h incubation. On the procedure: Test method: the inhibitory activity of the compounds against Ba/F3 Axl cell proliferation was evaluated using CellTiter-Glo® Luminescent Cell Viability Assay Kit (Promega).
Test procedures: when thawing Ba/F3 Axl cells, the cell cryopreservation tube was shaken rapidly in a water bath at 37° C. to thaw the cells in 1 min. The cell suspension after thawing was mixed with RPMI1640 culture medium containing 10% FBS and centrifuged for 5 min at 1000 rpm, and the supernatant was discarded. The cell pellet was suspended in 5 mL of complete culture medium. […] Cell passage was performed at a cell density of 2×10^6 viable cells/mL. When the cells were passaged, the original cell suspension was directly made uniform by pipetting. 1/10 (namely 0.5 mL) of the cell suspension was kept, added with 4.5 mL of new complete culture medium and then made uniform by pipetting. The cell culture flask was then placed in a cell incubator for further culturing. Cell plating was performed when the cell confluence reached 2×10^6 viable cells/mL again. With reference to the method for cell passage, 1/10 (namely 0.5 mL) of the cell suspension was kept for further culturing when the cells were plated, and the remaining cell suspension was placed in a 15 mL centrifuge tube. The supernatant was discarded after centrifugation, and 5 mL of complete culture medium was used to resuspend the cells. […] A control group that contains no cell or compound but only complete culture medium and a control group that contains no compound but cells were set. The cell plates were incubated overnight in a cell incubator. […] The cell plates were then incubated in the cell incubator for 72 h. […] The cell plate was left to stand at room temperature for 20 min to stabilize luminescence signals, and the luminescence value of each well was scanned by a Spectramax M3 multi-functional microplate reader (Molecular Devices) at full wavelength.
Test samples: example compounds of the present invention and bemcentinib (positive control compound).
Data analysis: cell viability was calculated for compounds at various concentrations using the following formula:
Cell viability(%)=(Lumtest compound−Lumculture solution control)/(Lumcell control−Lumculture solution control)×100%,
where Lum refers to the luminescence value of each well of the test compound plate read by the multi-functional microplate reader.
The data were analyzed using GraphPad Prism 7.0 software, fitted with nonlinear S-curve regression to give dose-response curves, and IC50 values were calculated therefrom.

In the next assay the target is T2, kinase c-MET (Homo sapiens, UniProt P08581).
T2 construct: purchased Carna 08-151
T2 sequence (P08581 956-1390 limits assumed): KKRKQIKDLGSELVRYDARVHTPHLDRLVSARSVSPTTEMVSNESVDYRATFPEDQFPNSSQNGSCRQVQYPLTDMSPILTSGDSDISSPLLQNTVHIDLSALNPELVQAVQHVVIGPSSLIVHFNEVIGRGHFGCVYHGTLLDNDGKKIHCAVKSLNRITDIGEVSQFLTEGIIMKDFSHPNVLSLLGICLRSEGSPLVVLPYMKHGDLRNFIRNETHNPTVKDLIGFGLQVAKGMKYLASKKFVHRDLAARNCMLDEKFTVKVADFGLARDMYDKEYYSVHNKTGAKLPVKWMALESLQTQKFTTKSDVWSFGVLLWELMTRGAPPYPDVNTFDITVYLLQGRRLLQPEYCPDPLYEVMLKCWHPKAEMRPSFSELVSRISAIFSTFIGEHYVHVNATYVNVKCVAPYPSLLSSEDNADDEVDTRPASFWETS
The assay is described as follows: Mobility shift assay, inhibitory activity against kinase c-MET. In kind it is biochemical. As to conditions: ATP at Km (35 μM), average of two independent experiments. Here is the method: (§1) In this test, mobility shift assay was used to test the inhibitory activity of compounds when ATP concentrations correspond to the Km of the kinases.
(§2) The concentration of test compound was 10-fold diluted from an initial concentration of 10 μM. The test result (IC50) was the average of two independent experiments.
(§3) For example, a compound at an initial concentration of 10 μM was adjusted to 500 μM with 100% DMSO, then serially diluted for 10 concentrations, and then subjected to 10-fold dilution with the buffer to prepare a diluted compound intermediate containing 10% DMSO, 5 μL of which was transferred to the 384-well plate.
(§4) 10 μL of the two enzyme solutions each was added to the 384-well plate and co-incubated with the compound for 10-15 min at room temperature.
(§5) 10 μL of the diluted substrate was added to the 384-well plate to initiate the reaction, which lasts for 1 h at 28° C.
(§6) 5) The conversion rate was read by Caliper Reader (Perkin Elmer) and the inhibition rate was calculated as the average of two tests.
(§7) 6) IC50 values were fitted with XL-fit software.

In a further assay the target is T3, tyrosine kinase Mer (Homo sapiens, UniProt Q12866).
T3 construct: purchased Carna 08-108
T3 sequence (Q12866 528-999 limits assumed): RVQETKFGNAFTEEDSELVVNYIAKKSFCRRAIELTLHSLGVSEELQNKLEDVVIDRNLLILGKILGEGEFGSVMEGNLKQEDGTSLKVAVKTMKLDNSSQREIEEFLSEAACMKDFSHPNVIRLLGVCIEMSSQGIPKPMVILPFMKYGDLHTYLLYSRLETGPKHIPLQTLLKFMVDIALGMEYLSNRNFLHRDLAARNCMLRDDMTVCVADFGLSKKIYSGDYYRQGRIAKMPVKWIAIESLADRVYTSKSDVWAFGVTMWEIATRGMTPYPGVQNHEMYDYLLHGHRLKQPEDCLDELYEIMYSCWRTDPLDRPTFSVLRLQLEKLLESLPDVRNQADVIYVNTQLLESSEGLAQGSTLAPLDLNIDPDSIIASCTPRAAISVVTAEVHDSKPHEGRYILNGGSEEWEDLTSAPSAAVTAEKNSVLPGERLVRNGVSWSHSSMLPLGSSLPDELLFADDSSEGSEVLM
The assay is described as follows: HTRF assay, inhibitory activity against tyrosine kinase Mer. In kind it is biochemical. As to conditions: ATP at Km (30 μM), two duplicate wells. On the procedure:
(§8) Test Example 2: Evaluation of Inhibitory Activity (IC50) of Compounds disclosed herein against Tyrosine Kinases Mer and Tyro3
(§9) In this test, HTRF method was used to test the inhibitory activity of compounds when ATP concentrations correspond to the Km of the kinases. The control substance was RXDX-106. The concentration of test compound was 3-fold diluted from an initial concentration of 10 μM, and two duplicate wells were set.
(§10) Kinase Mer (Carna, Cat. No. 08-108, Lot. No. 14CBS-0421H); Tyro3 (Carna, Cat. No. 08-109, Lot. No. 08CBS-1186H); HTRF kinase-TK kit (Cisbio, Cat. No. 62TK0PEC), the kit comprising: biotin-TK substrate lyophilized powder (Cisbio, Cat. No. 61TK0BLC, Lot. No. 07A), streptavidin-XL665 (Cisbio, Cat. No. 610SAXLG, Lot. No. 126A), TK antibody-cryptate (Cisbio, Cat. No. 610SAXLG, Lot. No. 04A), and detection buffer (including EDTA) (Cisbio, Cat. No. 62TK0PEC, Lot. No. 12A); ATP (Sigma, Cat. No. A7699-5G, CAS No. 34369-07-8, Lot. No. SLBQ6014V); DMSO (Sigma, Cat. No. D5879-1L, Lot. No. SHBH9944); HEPES (Sigma, Cat. No. V900477-500G, CAS No. 7365-45-9, Lot. No. WXBC4716V); MgCl2 (Sigma, Cat. No. 208337-1KG, Lot. No. MKBX9508V); EGTA (Sigma, Cat. No. E3889-100g, CAS 67-42-5, […], Lot. No. SLBG8546V); NP-40 (Beijing Dingguo, Cat. No. DH218, Lot. No. 36R00160); DTT (Sigma, Cat. No. D0632-25g, CAS No. 3483-12-3, Lot. No. SLBF3964V); compound plate (Labcyte, Cat. No. LP0200, Lot. No. 0006386836); assay plate (Greiner, Cat. No. 784075, Lot. No. E16123HM); control substance RXDX-106 (prepared according to the method disclosed in patent WO2013074633).
(§11) 1) Preparation of a buffer: 50 mM HEPES, 10 mM MgCl2, 1 mM EGTA, 0.01% NP-40, 2 mM DTT.
(§12) 2) Preparation of control substance and test samples: RXDX-106 and the compounds disclosed herein were each dissolved in DMSO to 10 mM and then diluted to 1 mM or an appropriate concentration with DMSO, and then serial double dilution was performed using BRAVO (Agilent). 100 nL of each was transferred from a compound plate (Labcyte-LP0200) to an assay plate (Greiner-784075) using ECHO 555 (Labcyte). The final concentration of DMSO was 1%.
(§13) 3) Mer and Tyro3 were each diluted to 0.5 nM and 1.2 nM with the detection buffer (Cisbio, Cat. No. 62TK0PEC, Lot. No. 12A). 5 μL of each was added to a 384-well plate and incubated with the compounds disclosed herein for 30 min at 22-25° C. Final concentrations of Mer and Tyro3 were 0.25 nM and 0.6 nM, respectively.
(§14) 4) Biotin-TK substrate and ATP were each diluted to a concentration twice the final concentration with 1× kinase buffer made up of HEPES, NaN3, BSA and orthovanadate. 5 μL of the mixture of substrate and ATP was added to the 384-well plate to initiate the reaction, which lasts for 1 h at 22-25° C.
(§15) 5) Streptavidin-XL665 and TK antibody-cryptate were diluted to 250 nM and 0.5 nM, respectively, with the detection buffer. […] of each of the two solutions was added to the 384-well plate to initiate the reaction, which lasts for 1 h at 22-25° C. The final concentrations of streptavidin-XL665 and TK antibody-cryptate were 125 nM and 0.25 nM, respectively.
(§16) 6) The fluorescence intensities at 665 nm and 615 nm were read with an Envision Reader (PerkinElmer) .
(§17) 7) IC50 values of the compounds were fitted with XL-fit software.

The target of the next assay is T4, kinase Axl (Homo sapiens, UniProt P30530).
T4 construct: purchased Carna 08-107
T4 sequence (P30530 473-894 limits assumed): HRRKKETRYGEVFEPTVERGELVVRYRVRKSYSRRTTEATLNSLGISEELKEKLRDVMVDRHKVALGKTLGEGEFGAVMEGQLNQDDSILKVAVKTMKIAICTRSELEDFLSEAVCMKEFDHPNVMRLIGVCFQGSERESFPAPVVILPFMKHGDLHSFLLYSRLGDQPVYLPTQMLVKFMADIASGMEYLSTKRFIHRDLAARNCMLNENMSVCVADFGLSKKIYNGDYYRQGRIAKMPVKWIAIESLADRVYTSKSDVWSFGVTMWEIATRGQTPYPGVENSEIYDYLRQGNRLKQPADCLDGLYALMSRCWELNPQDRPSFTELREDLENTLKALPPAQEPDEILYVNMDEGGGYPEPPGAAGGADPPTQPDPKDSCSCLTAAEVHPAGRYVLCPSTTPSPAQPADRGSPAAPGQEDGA
The assay is described as follows: Mobility shift assay, inhibitory activity against kinase Axl. In kind it is biochemical. Conditions: ATP at Km (81 μM), average of two independent experiments. Here is the method: as §1, §2, §3, §4, §5, §6, §7

A further assay concerns the target T5, tyrosine kinase Tyro3 (Homo sapiens, UniProt Q06418).
T5 construct: purchased Carna 08-109
T5 sequence (Q06418 453-890 limits assumed): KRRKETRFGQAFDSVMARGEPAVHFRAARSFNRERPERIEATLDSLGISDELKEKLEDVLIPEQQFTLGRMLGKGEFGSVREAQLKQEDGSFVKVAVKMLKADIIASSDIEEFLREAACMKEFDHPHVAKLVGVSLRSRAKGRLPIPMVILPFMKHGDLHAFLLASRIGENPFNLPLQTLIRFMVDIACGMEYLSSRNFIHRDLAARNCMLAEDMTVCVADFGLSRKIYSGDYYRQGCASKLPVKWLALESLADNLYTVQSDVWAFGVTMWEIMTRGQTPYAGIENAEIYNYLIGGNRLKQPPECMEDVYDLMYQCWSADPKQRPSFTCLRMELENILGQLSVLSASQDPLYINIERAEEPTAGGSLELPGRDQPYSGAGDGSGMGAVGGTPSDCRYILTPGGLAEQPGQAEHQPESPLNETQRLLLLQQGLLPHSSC
As to the kind of experiment: HTRF assay, inhibitory activity against tyrosine kinase Tyro3. It is filed as biochemical. Conditions: ATP at Km (50 μM), two duplicate wells. Here is the method:
as §8, §9, §10, §11, §12, §13, §14, §15, §16, §17

Turning to `Nc1nc(Nc2ccc3c(c2)CC[C@@H](N2CCCC2)CC3)nn1-c1cc2c(nn1)-c1ccccc1CCC2` [Bemcentinib, bemcentinib, reference compound], on Ba/F3 Axl cells, the GI50 was 26.9 nM.

For `COc1ccc(-c2cnc(N)c(-c3ccc(NC(=O)c4cn(C(C)C)c(C#N)c(-c5ccc(F)cc5)c4=O)cc3F)c2)cc1OC` [Example 1, N-(4-(2-amino-5-(3,4-dimethoxyphenyl)pyridin-3-yl)-3-fluoro-phenyl)-6-cyano-5-(4-fluorophenyl)-1-isopropyl-4-oxo-1,4-dihydropyridine-3-carboxamide], the IC50 on kinase c-MET was determined as 133 nM; at tyrosine kinase Mer, 4.9 nM; on kinase Axl, 13 nM; against tyrosine kinase Tyro3, 7.51 nM.

For `CCn1cc(-c2cnc(N)c(-c3ccc(NC(=O)c4cn(C5CCC5)c(C#N)c(-c5ccc(F)cc5)c4=O)cc3F)c2)cn1` [Example 9, N-(4-(2-amino-5-(1-ethyl-1H-pyrazol-4-yl)pyridin-3-yl)-3-fluoro-phenyl)-6-cyano-5-(4-fluorophenyl)-1-cyclobutyl-4-oxo-1,4-dihydropyridine-3-carboxamide], the IC50 on kinase c-MET stood at 70 nM; at tyrosine kinase Mer, 1.3 nM; on kinase Axl, 4.6 nM; on tyrosine kinase Tyro3 it was 3 nM.
